Results as given in ChEMBL document CHEMBL1136696, “Azalide 3,6-ketals: antibacterial activity and structure-activity relationships of aryl and hetero aryl substituted analogues” (Bioorg Med Chem Lett, 2003).
Converted amounts (≈) assume the structure as drawn.

What was measured:
Assay type in all cases: functional
Pasteurella multocida = experiment: In vitro antibacterial activity against Pasteurella multocida 59A0067
Staphylococcus aureus = experiment: In vitro antibacterial activity against Staphylococcus aureus 01A0758
Escherichia coli = experiment: In vitro antibacterial activity against Escherichia coli 51A0150

| MIC (Pasteurella multocida) [µg/mL] | MIC (Staphylococcus aureus) [µg/mL] | MIC (Escherichia coli) [µg/mL] | Structure (SMILES) |
| --- | --- | --- | --- |
| 0.39 (≈ 0.5 µM) | 1.56 (≈ 2 µM) | 3.13 (≈ 4.01 µM) | CC[C@H]1OC(=O)[C@H](C)[C@H]2OC3(CCN(c4ccc([N+](=O)[O-])cn4)CC3)O[C@](C)(C[C@@H](C)CN[C@H](C)[C@@H](O)[C@]1(C)O)[C@H](O[C@@H]1O[C@H](C)CC(N(C)C)[C@H]1O)[C@H]2C (stereo partly specified) |
| 1.56 (≈ 1.72 µM) | 3.13 (≈ 3.45 µM) | > 50 | CC[C@H]1OC(=O)[C@H](C)[C@H]2OC3(CCN(c4ccc(S(=O)(=O)c5ccc(F)cc5)cc4)CC3)O[C@](C)(C[C@@H](C)CN(C)[C@H](C)[C@@H](O)[C@]1(C)O)[C@H](O[C@@H]1O[C@H](C)CC(N(C)C)[C@H]1O)[C@H]2C (stereo partly specified) |
| 3.13 (≈ 3.88 µM) | 6.25 (≈ 7.74 µM) | 50 (≈ 62 µM) | CCOC(=O)c1ccc(N2CCC3(CC2)O[C@H]2[C@H](C)[C@@H](O[C@@H]4O[C@H](C)CC(N(C)C)[C@H]4O)[C@@](C)(C[C@@H](C)CN[C@H](C)[C@@H](O)[C@](C)(O)[C@@H](CC)OC(=O)[C@@H]2C)O3)nc1 (stereo partly specified) |
| 0.1 (≈ 0.133 µM) | 1.56 (≈ 2.08 µM) | 1.56 (≈ 2.08 µM) | CC[C@H]1OC(=O)[C@H](C)[C@H]2OC3(CCN(c4ncccn4)CC3)O[C@](C)(C[C@@H](C)CN(C)[C@H](C)[C@@H](O)[C@]1(C)O)[C@H](O[C@@H]1O[C@H](C)CC(N(C)C)[C@H]1O)[C@H]2C (stereo partly specified) |
| 0.39 (≈ 0.505 µM) | 3.13 (≈ 4.05 µM) | 25 (≈ 32.3 µM) | CC[C@H]1OC(=O)[C@H](C)[C@H]2OC3(CCN(c4ccc(C#N)cc4)CC3)O[C@](C)(C[C@@H](C)CN(C)[C@H](C)[C@@H](O)[C@]1(C)O)[C@H](O[C@@H]1O[C@H](C)CC(N(C)C)[C@H]1O)[C@H]2C (stereo partly specified) |
| 3.13 (≈ 3.53 µM) | 0.39 (≈ 0.44 µM) | > 50 | CC[C@H]1OC(=O)[C@H](C)[C@H]2OC3(CCN(c4ccc(C(=O)OCc5ccccc5)cc4F)CC3)O[C@](C)(C[C@@H](C)CN[C@H](C)[C@@H](O)[C@]1(C)O)[C@H](O[C@@H]1O[C@H](C)CC(N(C)C)[C@H]1O)[C@H]2C (stereo partly specified) |
| 0.78 (≈ 0.989 µM) | 3.13 (≈ 3.97 µM) | 6.25 (≈ 7.92 µM) | CC[C@H]1OC(=O)[C@H](C)[C@H]2OC3(CCN(c4nc5ccccc5o4)CC3)O[C@](C)(C[C@@H](C)CN(C)[C@H](C)[C@@H](O)[C@]1(C)O)[C@H](O[C@@H]1O[C@H](C)CC(N(C)C)[C@H]1O)[C@H]2C (stereo partly specified) |
| 0.39 (≈ 0.492 µM) | 1.56 (≈ 1.97 µM) | 3.13 (≈ 3.95 µM) | CC[C@H]1OC(=O)[C@H](C)[C@H]2OC3(CCN(c4ccccc4[N+](=O)[O-])CC3)O[C@](C)(C[C@@H](C)CN(C)[C@H](C)[C@@H](O)[C@]1(C)O)[C@H](O[C@@H]1O[C@H](C)CC(N(C)C)[C@H]1O)[C@H]2C (stereo partly specified) |
| > 50 | 1.56 (≈ 1.81 µM) | > 50 | CC[C@H]1OC(=O)[C@H](C)[C@H]2OC3(CCN(c4nc(Cl)nc(-c5ccccc5)n4)CC3)O[C@](C)(C[C@@H](C)CN(C)[C@H](C)[C@@H](O)[C@]1(C)O)[C@H](O[C@@H]1O[C@H](C)CC(N(C)C)[C@H]1O)[C@H]2C (stereo partly specified) |
| 1.56 (≈ 1.91 µM) | 6.25 (≈ 7.64 µM) | 12.5 (≈ 15.3 µM) | CC[C@H]1OC(=O)[C@H](C)[C@H]2OC3(CCN(c4nccc(C(F)(F)F)n4)CC3)O[C@](C)(C[C@@H](C)CN(C)[C@H](C)[C@@H](O)[C@]1(C)O)[C@H](O[C@@H]1O[C@H](C)CC(N(C)C)[C@H]1O)[C@H]2C (stereo partly specified) |
| 3.13 (≈ 3.64 µM) | 25 (≈ 29.1 µM) | 12.5 (≈ 14.5 µM) | CC[C@H]1OC(=O)[C@H](C)[C@H]2OC3(CCN(c4ccc(C(=O)O)c(C(F)(F)F)c4)CC3)O[C@](C)(C[C@@H](C)CN(C)[C@H](C)[C@@H](O)[C@]1(C)O)[C@H](O[C@@H]1O[C@H](C)CC(N(C)C)[C@H]1O)[C@H]2C (stereo partly specified) |
| 0.39 (≈ 0.481 µM) | 1.56 (≈ 1.93 µM) | 6.25 (≈ 7.72 µM) | CC[C@H]1OC(=O)[C@H](C)[C@H]2OC3(CCN(c4cc(OC)nc(OC)n4)CC3)O[C@](C)(C[C@@H](C)CN(C)[C@H](C)[C@@H](O)[C@]1(C)O)[C@H](O[C@@H]1O[C@H](C)CC(N(C)C)[C@H]1O)[C@H]2C (stereo partly specified) |
